In ChEMBL document CHEMBL1909046, “DrugMatrix in vitro pharmacology data”:

biological target: Beta-3 adrenergic receptor (Homo sapiens, UniProt P13945); assay: DRUGMATRIX: Adrenergic beta3 radioligand binding (ligand: [125I] Cyanopindolol); type: cell membranes, HEK293, Membrane; settings: hek293; Not Active = under 50% inhibition at 10 µM
Sequence (P13945 whole entry): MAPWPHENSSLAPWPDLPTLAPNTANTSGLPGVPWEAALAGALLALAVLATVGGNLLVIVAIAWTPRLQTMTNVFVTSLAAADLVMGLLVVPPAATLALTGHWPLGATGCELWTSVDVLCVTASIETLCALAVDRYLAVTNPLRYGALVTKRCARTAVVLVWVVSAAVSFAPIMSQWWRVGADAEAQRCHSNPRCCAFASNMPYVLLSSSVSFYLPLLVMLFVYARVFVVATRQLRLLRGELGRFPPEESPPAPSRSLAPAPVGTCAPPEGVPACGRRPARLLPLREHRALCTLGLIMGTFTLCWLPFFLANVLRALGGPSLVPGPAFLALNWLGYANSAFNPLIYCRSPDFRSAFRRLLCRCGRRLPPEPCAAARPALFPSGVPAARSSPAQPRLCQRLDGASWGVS

Question: With CC(=O)OCC(=O)[C@@]1(O)CC[C@H]2[C@@H]3CCC4=CC(=O)CC[C@]4(C)[C@@]3(F)[C@@H](O)C[C@@]21C [FLUDROCORTISONE ACETATE] as the compound, how does the IC50 read?
Answer: Not Active

Question: With CCOC(=O)c1ncn2c1CN(C)C(=O)c1cc(F)ccc1-2 [FLUMAZENIL] as the compound, how does the IC50 read?
Answer: Not Active

Question: For CC(=O)OCC(=O)[C@@]12OC(C)(C)O[C@@H]1C[C@H]1[C@@H]3C[C@H](F)C4=CC(=O)C=C[C@]4(C)[C@@]3(F)[C@@H](O)C[C@@]12C [FLUOCINONIDE], which IC50 is on record?
Answer: Not Active

Question: With O=C(O)P(=O)(O)O [FOSCARNET] as the compound, how does the IC50 read?
Answer: Not Active

Question: Which IC50 does the source give for Cc1ccc(C)c(OCCCC(C)(C)C(=O)O)c1 [GEMFIBROZIL] here?
Answer: Not Active

Question: For O=c1c(-c2ccc(O)cc2)coc2cc(O)cc(O)c12 [GENISTEIN], which IC50 is on record?
Answer: Not Active

Question: For CCC1=C(C)CN(C(=O)NCCc2ccc(S(=O)(=O)NC(=O)N[C@H]3CC[C@H](C)CC3)cc2)C1=O [GLIMEPIRIDE], which IC50 is on record?
Answer: Not Active

biological target: 5-hydroxytryptamine receptor 6 (Homo sapiens, UniProt P50406); type: cell membranes, HeLa, Membrane; settings: hela; also: in other assays of this panel Not Active means under 50% inhibition at 10 µM
Sequence (P50406 whole entry): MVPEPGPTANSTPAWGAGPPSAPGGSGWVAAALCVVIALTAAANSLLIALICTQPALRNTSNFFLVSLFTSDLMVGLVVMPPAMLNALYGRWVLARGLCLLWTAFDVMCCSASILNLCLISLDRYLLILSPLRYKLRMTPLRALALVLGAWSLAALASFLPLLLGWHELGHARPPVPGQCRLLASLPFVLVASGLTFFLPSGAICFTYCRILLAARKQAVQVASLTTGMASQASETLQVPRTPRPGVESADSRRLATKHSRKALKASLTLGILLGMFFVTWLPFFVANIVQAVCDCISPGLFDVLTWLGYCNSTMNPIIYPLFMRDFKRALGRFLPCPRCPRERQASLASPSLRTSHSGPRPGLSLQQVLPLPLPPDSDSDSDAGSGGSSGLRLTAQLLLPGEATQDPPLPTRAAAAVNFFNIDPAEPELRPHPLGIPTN

Question: For CC(=O)OCC(=O)[C@@]1(O)CC[C@H]2[C@@H]3CCC4=CC(=O)CC[C@]4(C)[C@@]3(F)[C@@H](O)C[C@@]21C [FLUDROCORTISONE ACETATE], which IC50 is on record?
Answer: Not Active

Question: For CCOC(=O)c1ncn2c1CN(C)C(=O)c1cc(F)ccc1-2 [FLUMAZENIL], which IC50 is on record?
Answer: Not Active

Question: With CC(=O)OCC(=O)[C@@]12OC(C)(C)O[C@@H]1C[C@H]1[C@@H]3C[C@H](F)C4=CC(=O)C=C[C@]4(C)[C@@]3(F)[C@@H](O)C[C@@]12C [FLUOCINONIDE] as the compound, how does the IC50 read?
Answer: Not Active

Question: With O=C(O)P(=O)(O)O [FOSCARNET] as the compound, how does the IC50 read?
Answer: Not Active

Question: Which IC50 does the source give for Cc1ccc(C)c(OCCCC(C)(C)C(=O)O)c1 [GEMFIBROZIL] here?
Answer: Not Active

Question: Which IC50 does the source give for O=c1c(-c2ccc(O)cc2)coc2cc(O)cc(O)c12 [GENISTEIN] here?
Answer: Not Active

Question: For CCC1=C(C)CN(C(=O)NCCc2ccc(S(=O)(=O)NC(=O)N[C@H]3CC[C@H](C)CC3)cc2)C1=O [GLIMEPIRIDE], which IC50 is on record?
Answer: Not Active

biological target: T1, Substance-K receptor (Homo sapiens, UniProt P21452); type: cell membranes, CHO, Membrane; settings: cho; also: in other assays of this panel Not Active means under 50% inhibition at 10 µM
T1 sequence (P21452 whole entry): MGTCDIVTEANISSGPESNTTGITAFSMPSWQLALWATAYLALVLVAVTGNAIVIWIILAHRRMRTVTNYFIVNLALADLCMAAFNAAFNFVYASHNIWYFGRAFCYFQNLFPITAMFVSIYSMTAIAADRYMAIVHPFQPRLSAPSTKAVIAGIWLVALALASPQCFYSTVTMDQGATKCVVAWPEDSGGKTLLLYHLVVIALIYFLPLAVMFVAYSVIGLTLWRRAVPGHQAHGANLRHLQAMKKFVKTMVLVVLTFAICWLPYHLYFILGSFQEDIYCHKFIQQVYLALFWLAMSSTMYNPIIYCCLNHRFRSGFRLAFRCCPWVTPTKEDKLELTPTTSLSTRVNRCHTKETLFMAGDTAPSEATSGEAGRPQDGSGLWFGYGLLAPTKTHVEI

Question: With CC(=O)OCC(=O)[C@@]1(O)CC[C@H]2[C@@H]3CCC4=CC(=O)CC[C@]4(C)[C@@]3(F)[C@@H](O)C[C@@]21C [FLUDROCORTISONE ACETATE] as the compound, how does the IC50 read?
Answer: Not Active

Question: With CCOC(=O)c1ncn2c1CN(C)C(=O)c1cc(F)ccc1-2 [FLUMAZENIL] as the compound, how does the IC50 read?
Answer: Not Active

Question: For CC(=O)OCC(=O)[C@@]12OC(C)(C)O[C@@H]1C[C@H]1[C@@H]3C[C@H](F)C4=CC(=O)C=C[C@]4(C)[C@@]3(F)[C@@H](O)C[C@@]12C [FLUOCINONIDE], which IC50 is on record?
Answer: Not Active

Question: For O=C(O)P(=O)(O)O [FOSCARNET], which IC50 is on record?
Answer: Not Active

Question: Which IC50 does the source give for Cc1ccc(C)c(OCCCC(C)(C)C(=O)O)c1 [GEMFIBROZIL] here?
Answer: Not Active

Question: Which IC50 does the source give for O=c1c(-c2ccc(O)cc2)coc2cc(O)cc(O)c12 [GENISTEIN] here?
Answer: Not Active

Question: With CCC1=C(C)CN(C(=O)NCCc2ccc(S(=O)(=O)NC(=O)N[C@H]3CC[C@H](C)CC3)cc2)C1=O [GLIMEPIRIDE] as the compound, how does the IC50 read?
Answer: Not Active

biological target: T2, D(4) dopamine receptor (Homo sapiens, UniProt P21917); assay: DRUGMATRIX: Dopamine D4.2 radioligand binding (ligand: [3H] Spiperone); type: cell membranes, CHO-K1, Membrane; settings: cho-k1; Not Active = under 50% inhibition at 10 µM
T2 sequence (P21917 whole entry): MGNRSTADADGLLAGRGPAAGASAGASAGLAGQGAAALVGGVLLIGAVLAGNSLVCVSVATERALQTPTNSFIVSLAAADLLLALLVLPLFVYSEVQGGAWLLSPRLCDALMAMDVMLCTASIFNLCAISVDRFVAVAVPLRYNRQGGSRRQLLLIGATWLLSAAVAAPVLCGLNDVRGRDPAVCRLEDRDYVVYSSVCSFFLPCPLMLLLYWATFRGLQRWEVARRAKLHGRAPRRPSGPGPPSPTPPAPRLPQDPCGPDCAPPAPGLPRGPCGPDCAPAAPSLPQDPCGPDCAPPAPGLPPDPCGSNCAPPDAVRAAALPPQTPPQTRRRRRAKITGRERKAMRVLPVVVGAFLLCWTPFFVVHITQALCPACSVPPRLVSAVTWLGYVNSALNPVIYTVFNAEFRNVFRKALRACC

Question: For CC(=O)OCC(=O)[C@@]1(O)CC[C@H]2[C@@H]3CCC4=CC(=O)CC[C@]4(C)[C@@]3(F)[C@@H](O)C[C@@]21C [FLUDROCORTISONE ACETATE], which IC50 is on record?
Answer: Not Active

Question: With CCOC(=O)c1ncn2c1CN(C)C(=O)c1cc(F)ccc1-2 [FLUMAZENIL] as the compound, how does the IC50 read?
Answer: Not Active

Question: Which IC50 does the source give for CC(=O)OCC(=O)[C@@]12OC(C)(C)O[C@@H]1C[C@H]1[C@@H]3C[C@H](F)C4=CC(=O)C=C[C@]4(C)[C@@]3(F)[C@@H](O)C[C@@]12C [FLUOCINONIDE] here?
Answer: Not Active

Question: Which IC50 does the source give for O=C(O)P(=O)(O)O [FOSCARNET] here?
Answer: Not Active

Question: With Cc1ccc(C)c(OCCCC(C)(C)C(=O)O)c1 [GEMFIBROZIL] as the compound, how does the IC50 read?
Answer: Not Active

Question: Which IC50 does the source give for O=c1c(-c2ccc(O)cc2)coc2cc(O)cc(O)c12 [GENISTEIN] here?
Answer: Not Active

Question: For CCC1=C(C)CN(C(=O)NCCc2ccc(S(=O)(=O)NC(=O)N[C@H]3CC[C@H](C)CC3)cc2)C1=O [GLIMEPIRIDE], which IC50 is on record?
Answer: Not Active

test system: not listed separately; assay: DRUGMATRIX: Interleukin IL-1 radioligand binding (ligand: [125I] interleukin 1beta); type: cell membranes, Membrane; settings: nih3t3; Not Active = under 50% inhibition at 10 µM

Question: With CC(=O)OCC(=O)[C@@]1(O)CC[C@H]2[C@@H]3CCC4=CC(=O)CC[C@]4(C)[C@@]3(F)[C@@H](O)C[C@@]21C [FLUDROCORTISONE ACETATE] as the compound, how does the IC50 read?
Answer: Not Active

Question: And the Ki?
Answer: Not Active

Question: With CCOC(=O)c1ncn2c1CN(C)C(=O)c1cc(F)ccc1-2 [FLUMAZENIL] as the compound, how does the IC50 read?
Answer: Not Active

Question: And the Ki?
Answer: Not Active

Question: Which IC50 does the source give for CC(=O)OCC(=O)[C@@]12OC(C)(C)O[C@@H]1C[C@H]1[C@@H]3C[C@H](F)C4=CC(=O)C=C[C@]4(C)[C@@]3(F)[C@@H](O)C[C@@]12C [FLUOCINONIDE] here?
Answer: Not Active

Question: And the Ki?
Answer: Not Active

Question: With O=C(O)P(=O)(O)O [FOSCARNET] as the compound, how does the IC50 read?
Answer: Not Active

Question: And the Ki?
Answer: Not Active

Question: With Cc1ccc(C)c(OCCCC(C)(C)C(=O)O)c1 [GEMFIBROZIL] as the compound, how does the IC50 read?
Answer: Not Active

Question: And the Ki?
Answer: Not Active

Question: Which IC50 does the source give for O=c1c(-c2ccc(O)cc2)coc2cc(O)cc(O)c12 [GENISTEIN] here?
Answer: Not Active

Question: What about the Ki of the same compound?
Answer: Not Active

Question: With CCC1=C(C)CN(C(=O)NCCc2ccc(S(=O)(=O)NC(=O)N[C@H]3CC[C@H](C)CC3)cc2)C1=O [GLIMEPIRIDE] as the compound, how does the IC50 read?
Answer: Not Active

Question: And the Ki?
Answer: Not Active

test system: not listed separately; assay: DRUGMATRIX: Purinergic P2X radioligand binding (ligand: [3H] alpha, beta-Methylene-ATP); type: cell membranes, Oryctolagus cuniculus, New Zealand albino, Urinary bladder, Membrane; settings: Not Active = under 50% inhibition at 10 µM

Question: Which IC50 does the source give for CC(=O)OCC(=O)[C@@]1(O)CC[C@H]2[C@@H]3CCC4=CC(=O)CC[C@]4(C)[C@@]3(F)[C@@H](O)C[C@@]21C [FLUDROCORTISONE ACETATE] here?
Answer: Not Active

Question: What about the Ki of the same compound?
Answer: Not Active

Question: What does the source list for CCOC(=O)c1ncn2c1CN(C)C(=O)c1cc(F)ccc1-2 [FLUMAZENIL]?
Answer: IC50: Not Active; Ki: Not Active

Question: Which results are given for CC(=O)OCC(=O)[C@@]12OC(C)(C)O[C@@H]1C[C@H]1[C@@H]3C[C@H](F)C4=CC(=O)C=C[C@]4(C)[C@@]3(F)[C@@H](O)C[C@@]12C [FLUOCINONIDE]?
Answer: IC50: Not Active; Ki: Not Active

Question: What does the source list for O=C(O)P(=O)(O)O [FOSCARNET]?
Answer: IC50: Not Active; Ki: Not Active

Question: Which results are given for Cc1ccc(C)c(OCCCC(C)(C)C(=O)O)c1 [GEMFIBROZIL]?
Answer: IC50: Not Active; Ki: Not Active

Question: For O=c1c(-c2ccc(O)cc2)coc2cc(O)cc(O)c12 [GENISTEIN], which IC50 is on record?
Answer: Not Active

Question: And the Ki?
Answer: Not Active

Question: For CCC1=C(C)CN(C(=O)NCCc2ccc(S(=O)(=O)NC(=O)N[C@H]3CC[C@H](C)CC3)cc2)C1=O [GLIMEPIRIDE], which IC50 is on record?
Answer: Not Active

Question: And the Ki?
Answer: Not Active
